Test results taken from US7615533B2, “TPO peptide compounds for treatment of anemia” (Janssen Pharmaceutica N.V., priority 2004, dated 2009).
Entries after “also recorded” stand apart in the source; their conditions may differ. Non-standard residues stand in square brackets, D forms with d. No end group written: not given here. 2Nal = N[C@@H](Cc1ccc2ccccc2c1)C(=O)O; Sar = CNCC(=O)O

How the values were obtained:
carboplatin treated mice [1] = experiment: Example 6: mechanistic study, increasing carboplatin, hematology and brain fibrinogen/fibrin histology; assay type: in vivo, mouse
Procedure: (§1) The effects of PEGylated TPO Compound No. 1 on mice treated with carboplatin were observed. For all examples herein, a 10 mg/ml stock solution of PEGylated TPO Compound No. 1 was prepared in sterile saline. For mixing, the preparation was placed on a gyratory shaker for 15 mm. at 200 rpm. This method was used to dissolve PEGylated TPO Compound No. 1 without foaming. The stock was filtered using a GV Millex (0.22 μm) filter. Dosing solutions were then prepared from this stock using sterile saline. The stock and dosing solutions were prepared fresh on the day of use.
For mechanistic studies, groups of mice were treated with vehicle or increasing amounts of carboplatin (i.e., 60, 70 or 80 mg/kg) for 2 consecutive days (Day −1 & Day 0). Approximately one hour following the second dose of carboplatin, groups of mice were treated with PEGylated TPO Compound No. 1 (100 μg/kg) or vehicle (sterile saline, SS, preservative-free 0.9% sodium chloride) by IV (bolus) injection as delineated in Table 5.
On Day 15, the mice in all treatment groups were euthanised using CO2-asphyxiation and exsanguinations via cardiac puncture. The blood samples were transferred to separate EDTA (lavender-top) microtainers for hematologic evaluation. In addition, several organs (including the brains) of control mice and mice treated with 2×70 mg/kg carboplatin without and with co-treatment with PEGylated TPO Compound No. 1 were isolated and processed for histological examination. Sections of these tissues were processed immunohistochemically for fibrinogen/fibrin.

carboplatin treated mice [2] = experiment: Example 2: dosing before and/or after carboplatin, hematological parameters in mice; assay type: in vivo, BALB/c mouse
Procedure: as §1
The possibility that PEGylated TPO Compound No. 1 may sensitize bone marrow hematopoietic stem cells of mice to the toxic effects of carboplatin treatment was examined. For this study, a dose of PEGylated TPO Compound No. 1 was administered to the mice seven days prior to the carboplatin dose or immediately after carboplatin treatment. An additional group was treated with PEGylated TPO Compound No. 1 both prior to and after carboplatin administration. The effect of these dosing regimens on hematological parameters was also observed.
The groups of mice were treated with either carboplatin or vehicle (Phosphate Buffered Saline, PBS) by ip administration on Days 7 and 8 as delineated below. The optimal dose of carboplatin used to induce thrombocytopenia in the BALB/c mouse strain was previously determined to be a fractionated total dose of 120 mg/kg given as two consecutive daily injections (i.e., 2×60 mg/kg). Seven days prior to the first carboplatin dose or one (1) hour after the second dose of carboplatin, groups of mice were treated with PEGylated TPO Compound No. 1 (300 μg/kg) or vehicle (sterile saline, SS, preservative-free 0.9% sodium chloride) by IV (bolus) injection as delineated in Table 2. An additional group was treated with PEGylated TPO Compound No. 1 both before (Day 0) and after (Day 8, t=1 h) the carboplatin dose. All dosing was performed on a per-weight basis (100 μl/10 g body weight).
On Days 14, 18, 22 and 26, five mice in each test group were weighed and then euthanised using CO2-asphyxiation and exsanguination via cardiac puncture. The blood samples were transferred to separate EDTA (lavender-top) microcontainers for hematological evaluation. Groups of control mice (5) were processed on Days 14 and 26. The data are presented graphically as group means +SEM.

[3] = target: T1, human TPO receptor, c-mpl (hTPOr) (Homo sapiens, UniProt P40238); experiment: Example 7: Baf/3 hTPOr fos/lux luciferase reporter assay; assay type: cell-based
T1 construct: expressed in transfected cells
T1 sequence (P40238 26-635): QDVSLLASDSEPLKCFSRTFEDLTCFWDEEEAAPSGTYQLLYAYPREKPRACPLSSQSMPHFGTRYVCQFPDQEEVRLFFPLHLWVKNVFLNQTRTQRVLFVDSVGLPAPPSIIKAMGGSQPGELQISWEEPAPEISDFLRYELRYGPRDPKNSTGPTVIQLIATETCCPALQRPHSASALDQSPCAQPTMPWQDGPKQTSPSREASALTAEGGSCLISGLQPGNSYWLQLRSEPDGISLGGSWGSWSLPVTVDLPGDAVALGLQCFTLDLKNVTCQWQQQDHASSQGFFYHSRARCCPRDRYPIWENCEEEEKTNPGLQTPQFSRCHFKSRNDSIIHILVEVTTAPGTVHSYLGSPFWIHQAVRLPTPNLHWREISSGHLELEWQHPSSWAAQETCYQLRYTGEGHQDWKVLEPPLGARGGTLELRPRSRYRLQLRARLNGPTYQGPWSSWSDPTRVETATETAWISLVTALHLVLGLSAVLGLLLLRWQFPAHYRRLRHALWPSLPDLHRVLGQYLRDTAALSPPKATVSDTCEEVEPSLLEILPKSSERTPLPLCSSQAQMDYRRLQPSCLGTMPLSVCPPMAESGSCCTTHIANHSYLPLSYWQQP
Source text: The activity of the peptide compounds can be determined using standard relative luminescent units assay techniques. The assay employs, e.g., murine cells engineered to stably express the human TPO receptor and a luciferase reporter construct driven by the fos promoter. The assay may be performed as follows: Serum deprived Baf/3 hTPOr fos/lux cells expressing the human TPO receptor, c-mpl (hTPOr), and a luciferase reporter construct are exposed to increasing concentrations of either rhTPO or peptide compound for approximately 18 hours. Cells are then incubated in a medium containing a luciferase substrate and the luminescence of the cells is measured using a luminometer.

Compound | mortality (carboplatin treated mice [1]; 2×80 mg/kg carboplatin (alone), all of the mice, prior to study termination) | decreases in hemoglobin levels, RBC counts and hematocrits (carboplatin treated mice [2]; carboplatin alone 2×60 mg/kg ip, Days 18 and 22 compared to control groups) | body weight loss (average) (carboplatin treated mice [2]; carboplatin alone, between Days 7 and 26) | activation of TPO-R compared with TPO ([3]; at the same concentration as TPO) | activation of Baf/3 cells recombinantly expressing human TPO-R ([3]; increasing concentrations) | carboplatin-induced decreases in platelet and RBC counts (carboplatin treated mice [1]; 100 μg/kg iv about one hour after second carboplatin dose, Day 15) | microthrombotic events in brain sections, entire dose group (carboplatin treated mice [1]; 2×70 mg/kg carboplatin plus 100 μg/kg iv) | fibrinogen/fibrin staining of small vessels in brain sections (carboplatin treated mice [1]; 2×70 mg/kg carboplatin plus 100 μg/kg iv, Day 15, 70 mg/kg) | thrombocytopenia or anemia (carboplatin treated mice [1]; 2×80 mg/kg carboplatin plus 100 μg/kg iv, Day 15) | survival (carboplatin treated mice [1]; 2×80 mg/kg carboplatin plus 100 μg/kg iv, all of the mice) | carboplatin-induced changes in erythrocyte parameters (carboplatin treated mice [2]; 300 μg/kg iv on Day 0 (only), seven days prior to carboplatin) | carboplatin-induced decreases in hemoglobin levels, RBC counts and hematocrits (carboplatin treated mice [2]; 300 μg/kg iv on Day 8 (1 hour after second carboplatin) without or with additional dose on Day 0) | body weight between Days 7 and 26 (carboplatin treated mice [2]; carboplatin plus various co-treatments, 300 μg/kg iv, no statistical analysis) | onset of signs (hunched, unkempt) (carboplatin treated mice [2]; treatment on Day 8 without or with additional treatment on Day 0) | severity and duration of signs (hunched, unkempt) (carboplatin treated mice [2]; treatment on Days 0 and 8)
N.N.O=C([O-])C1(C(=O)[O-])CCC1.[Pt+2] [carboplatin, reference compound] | either found dead or were euthanized (moribund) | approx. 18% | approximately 4% | – | – | – | – | – | – | – | – | – | – | – | –
Methoxypolyethyleneglycol20000-propionyl-L-Isoleucyl-L-Glutamyl-Glycyl-L-Prolyl-L-Threonyl-L-Leucyl-L-Arginyl-L-Glutaminyl-L-2-Naphthylalanyl-L-Leucyl-L-Alanyl-L-Alanyl-L-Arginyl-Sarcosyl-Ne-(methoxypolyethyleneglycol20000-propionyl-L-Isoleucyl-L-Glutamyl-Glycyl-L-Prolyl-L-Threonyl-L-Leucyl-L-Arginyl-L-Glutaminyl-L-2-Naphthylalanyl-L-Leucyl-L-Alanyl-L-Alanyl-L-Arginyl-Sarcosyl-)-Lysinamide ({methoxypolyethyleneglycol20000‑propionyl}-IEGPTLRQ[2Nal]LAAR[Sar]K[Sar]RAAL[2Nal]QRLTPGEI; also: dimer: positions 16-29 are the second 14-mer written in reverse, its Sar C-terminus joined to the K15 epsilon-amine, K15 is C-terminal lysinamide (NH2), methoxypolyethyleneglycol20000-propionyl also on Ile29 N-terminus) [PEGylated TPO Compound No. 1] | – | – | – | stronger activation | dose dependent | totally inhibited | single | appeared normal or exhibited fibrinogen/fibrin staining that was only slightly darker than the control group; also recorded: reduces fibrinogen deposition and blood clots | did not exhibit thrombocytopenia or anemia | survived until the scheduled study termination | failed to affect carboplatin-induced changes | prevented | prevented this weight loss | appeared to delay the onset of these signs | decreased the severity and duration
